Laboratory results as given in US7329682B2, “Method for inhibiting 5-lipoxygenase using a benzoxazole derivative” (EWHA University-Industry Collaboration Foundation, priority 2003, dated 2008).
Like-named read-outs stand apart in the source and are kept apart here.

Columns and labels:
5-lipoxygenase = target: T1, 5-lipoxygenase (Mus musculus, UniProt P48999); experiment: Measurement of 5-lipoxygenase inhibition activity (free LTC4 from SCF-stimulated bone marrow-derived mast cells, enzyme immunoassay); type: cell-based, mouse (male BALB/cJ mice)
T1 construct: over 98% of cells were confirmed as mast cells originated from bone marrow; endogenous in cells; host or cells: bone marrow-derived mast cells from male BALB/cJ mice
T1 sequence (P48999 1-674): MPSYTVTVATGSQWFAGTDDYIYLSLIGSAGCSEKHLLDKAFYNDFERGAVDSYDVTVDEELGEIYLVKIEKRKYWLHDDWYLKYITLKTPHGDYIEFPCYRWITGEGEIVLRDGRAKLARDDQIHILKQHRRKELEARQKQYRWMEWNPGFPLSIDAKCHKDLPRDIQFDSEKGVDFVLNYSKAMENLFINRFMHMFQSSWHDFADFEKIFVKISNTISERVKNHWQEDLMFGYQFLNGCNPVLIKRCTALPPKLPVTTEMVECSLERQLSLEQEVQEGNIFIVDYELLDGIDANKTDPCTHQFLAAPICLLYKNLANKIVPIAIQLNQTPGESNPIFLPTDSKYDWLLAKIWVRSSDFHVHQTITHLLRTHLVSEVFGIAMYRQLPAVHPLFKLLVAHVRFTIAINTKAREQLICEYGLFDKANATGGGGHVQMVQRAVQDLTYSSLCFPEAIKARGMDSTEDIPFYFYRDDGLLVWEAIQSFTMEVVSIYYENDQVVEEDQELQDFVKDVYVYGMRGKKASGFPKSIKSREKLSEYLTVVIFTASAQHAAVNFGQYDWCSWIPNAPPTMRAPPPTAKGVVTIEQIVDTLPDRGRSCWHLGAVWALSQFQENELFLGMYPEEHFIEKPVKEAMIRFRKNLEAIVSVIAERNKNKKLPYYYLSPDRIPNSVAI
Description: Measurement of 5-lipoxygenase Inhibition Activity
The obtained cells were suspended in the enriched medium to a concentration of 1×10^6 cells/ml. […] 100 ng/ml of stem cell factor (SCF) was added to the culture medium, and then, the culture was centrifuged at 120 xg for 20 min at 4° C. Then, the supernatant was separated and the amount of free LTC4 was determined using an LTC4 enzyme immunoassay kit (Cayman Chemical, Ann Arbor, Mich., U.S.A.). The stem cell factor (SCF) was recombinantly expressed by the baculovirus/insect cell expression system. After 20-min stimulation, the supernatants were isolated for further analysis by enzyme immunoassay.

[1] = mast cells originated from bone marrow of BALB/cJ mice, 1×10^6 cells/ml, 30 min preincubation at 37° C., 100 ng/ml SCF stimulation 20 min, free LTC4 by enzyme immunoassay, vs non-treated control, read-out: IC50

| IC50 (5-lipoxygenase; [1]) [µM] | melting point [°C] | SMILES | IC50 (5-lipoxygenase) [µM] |
| --- | --- | --- | --- |
| 5.27 |  | Cc1ccc(-c2nc3ccccc3s2)cc1 [Example 20] |  |
| 1.54 | 188 to 190 | FC(F)Sc1ccccc1-c1nc2ccccc2s1 [Example 15] |  |
| 23.9 | 161 to 163.5 | CCc1ccc(Nc2nc3cc([N+](=O)[O-])ccc3o2)cc1 [Example 11] |  |
| 28.4 |  | O=[N+]([O-])c1ccc2oc(Nc3ccc(N=Nc4ccccc4)cc3)nc2c1 [Example 10] |  |
|  |  | O=[N+]([O-])c1ccc(-c2nc3ccccc3s2)cc1 [Example 14] | 11 |
| 2.76 | 132 to 133 | COc1ccc(-c2nc3ccccc3s2)cc1OC [Example 21] |  |
| 2.92 |  | Clc1ccccc1/C=C/c1nc2ccccc2s1 [Example 25] |  |
| 1.21 | 123 to 125.3 | CCc1ccc(Nc2nc3ccccc3o2)cc1 [Example 6] |  |
| 11.2 | 128 to 130.5 | Fc1ccc(-c2nc3ccccc3s2)cc1 [Example 13] |  |
| 2.5 |  | O=[N+]([O-])c1ccc(Cl)c(-c2nc3ccccc3s2)c1 [Example 18] |  |
| 7.26 |  | c1ccc(-c2nc3ccccc3s2)cc1 [Example 12, 2-phenyl benzothiazole] |  |
| 1.58 | 270 to 272 | Clc1ccc(Nc2nc3cccnc3s2)cc1Cl [Example 3] |  |
| 2.49 |  | ClCc1cccc(-c2nc3ccccc3s2)c1 [Example 22] |  |
| 4.32 | 120 to 123 | N#Cc1ccc(-c2nc3ccccc3s2)cc1 [Example 16] |  |
| 12.6 | 191 to 192.3 | Clc1ccc2oc(Nc3ccc(N=Nc4ccccc4)cc3)nc2c1 [Example 7] |  |
| 4.16 |  | Cc1ccc(-c2nc3ccccc3s2)cc1N [Example 19] |  |
| 9.3 |  | CCCCOc1ccc(-c2nc3ccccc3s2)cc1 [Example 17] |  |
| 6.11 |  | CCSc1ncccc1-c1nc2ccccc2s1 [Example 23] |  |
| 8.91 |  | c1ccc(Nc2nc3ccccc3o2)cc1 [Example 5] |  |
| 10.3 |  | CCc1ccc(Nc2nc3cccnc3s2)cc1 [Example 2] |  |

| SMILES | IC50 (5-lipoxygenase; [1]) [µM] | melting point [°C] | IC50 (5-lipoxygenase) [µM] |
| --- | --- | --- | --- |
| c1ccc(N=Nc2ccc(Nc3nc4ccccc4o3)cc2)cc1 [Example 4, 4-phenylazophenyl aminobenzoxazole] | 6.28 |  |  |
| CCc1ccc(Nc2nc3cc(Cl)ccc3o2)cc1 [Example 9] |  | 196 to 198 | 0.95 |
